In one data set the test system is corn seedlings. Nature of the data set: Greenhouse study of nitrapyrin as a biostimulant, shoot dry weight (biomass) of corn seedlings. Format: in vivo. Conditions: applied at lower concentrations/label rates than typically employed as nitrification inhibitor (equal to or lower than 45.4 grams of nitrapyrin per acre). As to the method: Com seeds were sown in 3-liter pots filled with a peat-vermiculite-perlite potting mix. Plants were grown for a period of 14 days in a greenhouse under standard conditions (28/32° C. night/day temperatures, 16-hour photoperiod, 55% relative humidity, 800 uMol/m2/s light intensity). Seven days after planting, treatments were applied using a 3×3 factorial treatment design (3 nitrapyrin rates×3 fertilizer treatments), with 4 biological replications per treatment combination. Plants were arranged in a completely randomized layout on the greenhouse bench. Nitrapyrin rates were: 0.0 g/plant (acetonitrile only), 0.0005 g/plant and 0.00073 g/plant, with each treatment unit dissolved in 5 mL of acetonitrile. Fertilizer treatments were: No fertilizer (water only), 15-5-15, and 6-24-6. Fertilizers were delivered at a rate of 100 ppm nitrogen, 3 times/week beginning on day 7 through day 14. Nitrapyrin treatments were given only once on day 7. Plants were monitored for signs of phytotoxicity during the experiment. On day 14, plants were harvested and dried in a forced-air oven. Dried plants were weighed individually for biomass. For results see FIG. 1.
A second experiment was performed with the same execution as described above, but with additional treatment groups and additional growing time (21 days). […]

The conditions of data set [1]: compositions and/or formulations containing high amounts of water; cited from earlier work.

As for `Clc1cccc(C(Cl)(Cl)Cl)n1` [nitrapyrin, Nitrapyrin], the “biostimulant properties (improvement in plant growth and/or vigor)” value with corn seedlings was “can exhibit biostimulant properties”. Further, in data set [1], the degradation of nitrapyrin entry is reported as “rapid degradation”.

The record behind these values is patent US20240172749A1, “USE OF NITRAPYRIN FOR IMPROVED PLANT GROWTH AND DEVELOPMENT” (Verdesian Life Sciences U.S., LLC, priority 2021, published 2024).
